What all share (type): functional
Experiment [1] relates to Staphylococcus aureus. The experiment is described as follows: Minimum inhibitory concentration against Staphylococcus aureus RN4220.
The test system of experiment [2] is Staphylococcus aureus. The experiment is described as follows: Minimum inhibitory concentration against Staphylococcus aureus AS5155.
The subject of experiment [3] is Streptococcus pyogenes. The experiment is described as follows: Minimum inhibitory concentration against Streptococcus pyogenes Dig 7.

This passage reports MIC results from ChEMBL document CHEMBL1144972, “Benzo[f]naphtyridones: a new family of topical antibacterial agents active on multi-resistant Gram-positive pathogens” (2003).

Converted amounts (≈) assume the structure as drawn.

As a reminder, the MIC is the smallest concentration in the dilution series that meets the test's criterion for growth inhibition. A high value points to a need for much substance. As to `C/C(=C\C(=O)OCCCCCCCCC(=O)O)C[C@@H]1OC[C@H](C[C@@H]2O[C@H]2[C@@H](C)[C@H](C)O)[C@@H](O)[C@H]1O` [MUPIROCIN], the MIC in experiment [1] came out at 0.5 mg/L (≈ 0.999 µM); in experiment [2], 1 mg/L (≈ 2 µM); in experiment [3] it was 0.12 mg/L (≈ 0.24 µM).
On the same counts, the results for `Cc1ccc(N2CCN(c3ccc4c(ncc5c4c(=O)c(C(=O)O)cn5C)c3F)CC2)cc1F` are 4 mg/L (≈ 8.61 µM), 2 mg/L (≈ 4.31 µM) and 16 mg/L (≈ 34.4 µM).
On the same counts, the results for `Cn1cc(C(=O)O)c(=O)c2c3cc(N4CCN(c5ccc(Cl)c(F)c5)CC4)c(Cl)c(F)c3ncc21` are 2 mg/L (≈ 3.85 µM), 1 mg/L (≈ 1.93 µM) and 16 mg/L (≈ 30.8 µM).
On the same counts, the results for `Cn1cc(C(=O)O)c(=O)c2c3cc(N4C[C@@]5(C)C[C@@H]4CC(C)(C)C5)c(F)cc3ncc21` are 2 mg/L (≈ 4.72 µM), 2 mg/L (≈ 4.72 µM) and 4 mg/L (≈ 9.45 µM).
In the case of `C[N+](C)(C)CCO.Cn1cc(C(=O)[O-])c(=O)c2cc3cc(F)c(N4CCN(c5ccc(F)cc5)CC4)cc3nc21`, the MIC in experiment [1] was 0.25 mg/L; in experiment [2] it was 2 mg/L; in experiment [3], 0.5 mg/L.
The corresponding values for `Cn1cc(C(=O)O)c(=O)c2c3ccc(F)c(N4CCN(c5cccc(C(F)(F)F)c5)CC4)c3ncc21` are 2 mg/L (≈ 4 µM), 4 mg/L (≈ 7.99 µM) and 16 mg/L (≈ 32 µM).
The corresponding values for `Cn1cc(C(=O)O)c(=O)c2c3cc(F)c(N4CCCC(C)(C)C4)cc3ncc21` are 4 mg/L (≈ 10.4 µM), 4 mg/L (≈ 10.4 µM) and 4 mg/L (≈ 10.4 µM).
On the same counts, the results for `CCn1cc(C(=O)O)c(=O)c2cc(F)c(N3CCN(C)CC3)cc21` [PEFLOXACIN] are 0.5 mg/L (≈ 1.5 µM), 64 mg/L (≈ 192 µM) and 8 mg/L (≈ 24 µM).
As to `Cc1ccc(N2CCN(c3cc4c(ncc5c4c(=O)c(C(=O)O)cn5C)c(F)c3Cl)CC2)cc1F`, the minimal inhibitory concentration (MIC) in experiment [1] worked out at 1 mg/L (≈ 2 µM); in experiment [2], 1 mg/L (≈ 2 µM); in experiment [3], 2 mg/L (≈ 4.01 µM).
